From patent publication US20120100229A1, “Treatment and Prevention of White Matter Injury with KATP Channel Activators” (Yale University, priority 2009, published 2012) come the findings set out here.

One assay relates to pre-oligodendrocytes. Kind of assay: Pre-oligodendrocyte proliferation, CyQUANT NF Cell Proliferation assay. It is filed as cell-based, rat. The settings on record: for IC50: exposure 72-96 h, 1 nM to 100 μM, cellular DNA content fluorescence. How it is done:
Purified oligodendrocyte progenitor cell cultures were prepared as described (Othman et al., 2003, Glia 44:166-172). In brief, primary rat mixed glial cell cultures were isolated from whole brains of postnatal day (P) 1 rats, dissociated into single cells, and cultured into poly-D-lysine (PDL, Sigma-Aldrich, St. Louis, Mo.) coated T75 tissue culture flasks. Plating medium consisted of Dulbecco's modified Eagle's medium (DMEM, Invitrogen, Carlsbad, Calif.) supplemented with 10% fetal bovine serum (FBS; InVitrogen, Carlsbad, Calif.), 2 mM L-glutamine, […]. Tissue cultures were maintained at 37° C. in a humidified 5% CO2 incubator, and medium was exchanged every 3 days. Once confluent (after 7-9 days), microglia were separated by mechanical shaking of flasks on a rotary shaker for 60 min at 200 rpm and removed. After addition of fresh medium, the remaining cells were allowed to recover overnight before repeating the mechanical shaking for an additional 16 h at 200 rpm to isolate oligodendrocyte progenitor cells. To ensure purity of oligodendrocyte progenitor cell cultures, the isolated cells were transferred to a tissue culture dish, from which the loosely attached oligodendrocyte progenitor cells were detached by gentle shaking after 60 min, leaving behind attached microglia and astrocytes. Oligodendrocyte progenitor cells were plated onto PDL coated 96 well plates using an automated dispenser and allowed to adhere to the plates over the next 1-2 days. This procedure yielded 98% A2B5-positive (OPC marker), and 2% MBP-positive (mature OL marker) cells. GFAP-positive (astrocyte marker) or O22A-positive (microglia marker) cells could not be detected in cultures prepared in this manner.
Cells were exposed to various KATP channel stimulators, with concentrations of compounds ranging from 1 nM to 100 μM, for 72-96 h. Pre-oligodendrocytes were cultured in 384-well plates, at a concentration of 10,000 cells per well. Cultures were washed two times with DMEM to remove any residual serum and then the respective solutions of KATP channel activators were added daily in an incubation buffer of DMEM with 0.5% FBS+10 μg/ml biotin and N2 supplement. Cells were then placed at 37° C. in a humidified atmosphere containing 5% CO2. All concentrations were tested in triplicate and each study was repeated twice.
To evaluate cell proliferation in response to KATP channel stimulators, the CyQUANT® NF Cell Proliferation assay (Invitrogen, Carlsbad, Calif.) was used according to the manufacturer's instructions. This assay measured cellular DNA content as a direct index of cell proliferation. Since cellular DNA content is highly proportional to cell number, this is a very accurate way to assess cell proliferation specifically. At the end of drug exposure, medium was removed and a stock solution of the green-fluorescent CyQUANT GR dye (prepared according to manufacturer's instructions) was added. […] Fluorescence was measured using an Envision Multilabel reader (Perkin-Elmer; Excitation: 480 nm, Emission: 530 nm).

The next assay deals with C57BL/6 mice. Kind of assay: Hypoxia-induced periventricular white matter injury in neonatal mice. In kind it is in vivo, mouse. The settings on record: for myelin basic protein-labeling (myelination): vs vehicle. How it is done: The effect of diazoxide in hypoxia-induced periventricular white matter injury was assessed. C57BL/6 mice were reared in […] 10% O2 from P3 to P12. Pups were treated with daily injection of either diazoxide or vehicle, with at least eight animals in each treatment group. Mice were weighed every two days. At P12, brains were removed. Ventricle size and myelin basic protein (MBP) labeling were assessed. C57BL/6 mice were exposed to low or normal oxygen conditions from P3-P12 (Turner et al., 2003, Proc. Natl. Acad. Sci. USA 100:11718-11722). In brief, litters of pups (P3) were placed with the dam in a Plexiglas chamber, in which oxygen levels were maintained at 9.5±1.0%, O2 levels were continuously monitored using a Cameron Instrument (Ontario, Canada) dual channel oxygen monitor attached to O2 electrodes placed at each end of the chamber. Control animals were kept in room air (˜22%) outside the Plexiglas chamber. Animals were removed from the chamber daily for less than 15 min to allow for diazoxide (10 mg/kg i.p.) or vehicle administration, as well as observation of weight gain. Mice were euthanized at P12, brains were harvested and shock frozen in ice cold (−20° C.) 2-methylbutane and stored at −80° C. until assessment of ventricular size or MBP immunocytochemistry (see below). At least eight animals were studied in each treatment group. Ventricle size was determined as reported (Turner et al., 2003, Proc. Natl. Acad. Sci. USA 100:11718-11722). Animals were weighed, anesthetized, and decapitated. Brains were shock frozen in ice cold (−20° C.) 2-methylbutane and stored at −80° C. Coronal sections spanning the brain were cut in a cryostat at a thickness of 16 μm in a Zeiss cryostat. Sections were mounted onto glass slides and stained with Phoenix Blue (Thermo Scientific, Waltham, Mass.). […] Ventricular sizes were quantified using Sigma Scan Pro Image Analysis Version 5.0.0 (SPSS Inc., Chicago, Ill.). The ventricular area, outlined by the Phoenix Blue staining, was measured and numerically integrated across the thickness of the slice. […]

In general, IC50 refers to the concentration that gives 50% inhibition. As for `CCC(C)(C)/N=C(/NC#N)Nc1cccnc1` [P 1075, (E)-1-cyano-2-tert-pentyl-3-(pyridin-3-yl)guanidine], in the assay with pre-oligodendrocytes (Rattus norvegicus), half-maximal inhibition (IC50) was put at 100 nM.
With `CC(O)(C(=O)Nc1ccc(S(=O)(=O)c2ccccc2)cc1)C(F)(F)F` (stereo not drawn) [ZM26600, 3,3,3-trifluoro-2-hydroxy-2-methyl-N-(4-(phenylsulfonyl)phenyl) propanamide], the IC50 in the assay with pre-oligodendrocytes was determined as 2500 nM.
`CC1=NS(=O)(=O)c2cc(Cl)ccc2N1` [diazoxide, 7-chloro-3-methyl-4H-1,2,4-benzothiadiazine 1,1-dioxide]: in the assay on pre-oligodendrocytes (Rattus norvegicus, quoted in the cell toxicity study, read-out: observed EC50 value (pre-oligodendrocyte proliferation)), the EC50 came to 10 nM. Further, the “myelin basic protein-labeling (myelination)” value in the assay with C57BL/6 mice (chronic hypoxia P3-P12, 10 mg/kg i.p. daily) is reported as “markedly improved”; in the assay on C57BL/6 mice (room air, 10 mg/kg i.p. daily), “More myelin basic protein-labeling”. For the same molecule, in the assay on C57BL/6 mice (hypoxia 10% O2 P3-P12, 10 mg/kg i.p. daily, p<0.05 ANOVA vs hypoxia-vehicle), the “ventricle size (ventriculomegaly)” value is recorded as “not enlarged”.
Turning to `CC1(C)Oc2ccc(C#N)cc2[C@@H](N2CCCC2=O)[C@@H]1O` [levcromakalim, (3S,4R)-3-hydroxy-2,2-dimethyl-4-(2-oxopyrrolidin-1-yl)chroman-6-carbonitrile], 2500 nM corresponded to half-maximal inhibition in the assay with pre-oligodendrocytes (Rattus norvegicus) (IC50).
For the molecule `CC(N/C(=N\C#N)Nc1ccncc1)C(C)(C)C` (stereo not drawn) [pinacidil, (E)-1-(3,3-dimethylbutan-2-yl)-2-cyano-3-(pyridin-4-yl)guanidine], the 50% inhibitory concentration (IC50) in the assay with pre-oligodendrocytes (Rattus norvegicus) came to 10000 nM.
In turn, `CC(=O)N(O)[C@@H]1c2cc(C#N)ccc2OC(C)(C)[C@H]1O` [Y26763, N-((3S,4R)-6-cyano-3-hydroxy-2,2-dimethylchroman-4-yl)-N-hydroxyacetamide] showed an IC50 in the assay on pre-oligodendrocytes (Rattus norvegicus) of 200 nM.
